Assay results reported in ChEMBL document CHEMBL3044736, “Synthesis, characterization, solvatochromic properties, and antimicrobial evaluation of 5-acetyl-2-thioxo-dihydro-pyrimidine-4,6-dione-based chalcones” (2013).
In brackets after ≈: the same amount, converted by molar mass.

Legend:
Format in all cases: functional
Escherichia coli [1] = test: Antimicrobial activity against Escherichia coli MTCC 443 by agar cup diffusion method
Staphylococcus aureus [2] = test: Antimicrobial activity against Staphylococcus aureus MTCC 96 assessed as diameter of growth inhibition zone at 100 ug/ml after 18-24 hr by agar cup diffusion method; details: read-out: DIZ
Escherichia coli [3] = test: Antimicrobial activity against Escherichia coli MTCC 443 assessed as diameter of growth inhibition zone at 250 ug/ml after 18-24 hr by agar cup diffusion method; details: read-out: DIZ
Candida albicans [4] = test: Antimicrobial activity against Candida albicans MTCC 227 assessed as diameter of growth inhibition zone at 50 ug/ml after 48-96 hr by agar cup diffusion method; details: read-out: DIZ
Trichophyton rubrum [5] = test: Antimicrobial activity against Trichophyton rubrum MTCC 296 assessed as diameter of growth inhibition zone at 250 ug/ml after 48-96 hr by agar cup diffusion method; details: read-out: DIZ
Escherichia coli [6] = test: Antimicrobial activity against Escherichia coli MTCC 443 assessed as diameter of growth inhibition zone at 50 ug/ml after 18-24 hr by agar cup diffusion method; details: read-out: DIZ
Candida albicans [7] = test: Antimicrobial activity against Candida albicans MTCC 227 by agar cup diffusion method
Streptococcus pyogenes [8] = test: Antimicrobial activity against Streptococcus pyogenes MTCC 442 assessed as diameter of growth inhibition zone at 50 ug/ml after 18-24 hr by agar cup diffusion method; details: read-out: DIZ
Klebsiella pneumoniae [9] = test: Antimicrobial activity against Klebsiella pneumoniae MTCC 109 assessed as diameter of growth inhibition zone at 25 ug/ml after 18-24 hr by agar cup diffusion method; details: read-out: DIZ
Klebsiella pneumoniae [10] = test: Antimicrobial activity against Klebsiella pneumoniae MTCC 109 assessed as diameter of growth inhibition zone at 100 ug/ml after 18-24 hr by agar cup diffusion method; details: read-out: DIZ
Aspergillus clavatus [11] = test: Antimicrobial activity against Aspergillus clavatus MTCC 1323 by agar cup diffusion method
Trichophyton rubrum [12] = test: Antimicrobial activity against Trichophyton rubrum MTCC 296 assessed as diameter of growth inhibition zone at 25 ug/ml after 48-96 hr by agar cup diffusion method; details: read-out: DIZ
Klebsiella pneumoniae [13] = test: Antimicrobial activity against Klebsiella pneumoniae MTCC 109 assessed as diameter of growth inhibition zone at 50 ug/ml after 18-24 hr by agar cup diffusion method; details: read-out: DIZ
Pseudomonas aeruginosa [14] = test: Antimicrobial activity against Pseudomonas aeruginosa MTCC 1688 assessed as diameter of growth inhibition zone at 250 ug/ml after 18-24 hr by agar cup diffusion method; details: read-out: DIZ
Penicillium [15] = test: Antimicrobial activity against Penicillium wild strain assessed as diameter of growth inhibition zone at 50 ug/ml after 48-96 hr by agar cup diffusion method; details: read-out: DIZ
Staphylococcus aureus [16] = test: Antimicrobial activity against Staphylococcus aureus MTCC 96 assessed as diameter of growth inhibition zone at 25 ug/ml after 18-24 hr by agar cup diffusion method; details: read-out: DIZ
Candida albicans [17] = test: Antimicrobial activity against Candida albicans MTCC 227 assessed as diameter of growth inhibition zone at 250 ug/ml after 48-96 hr by agar cup diffusion method; details: read-out: DIZ
Aspergillus clavatus [18] = test: Antimicrobial activity against Aspergillus clavatus MTCC 1323 assessed as diameter of growth inhibition zone at 25 ug/ml after 48-96 hr by agar cup diffusion method; details: read-out: DIZ
Penicillium [19] = test: Antimicrobial activity against Penicillium wild strain assessed as diameter of growth inhibition zone at 100 ug/ml after 48-96 hr by agar cup diffusion method; details: read-out: DIZ
Streptococcus pyogenes [20] = test: Antimicrobial activity against Streptococcus pyogenes MTCC 442 assessed as diameter of growth inhibition zone at 100 ug/ml after 18-24 hr by agar cup diffusion method; details: read-out: DIZ
Klebsiella pneumoniae [21] = test: Antimicrobial activity against Klebsiella pneumoniae MTCC 109 by agar cup diffusion method
Streptococcus pyogenes [22] = test: Antimicrobial activity against Streptococcus pyogenes MTCC 442 assessed as diameter of growth inhibition zone at 25 ug/ml after 18-24 hr by agar cup diffusion method; details: read-out: DIZ
Escherichia coli [23] = test: Antimicrobial activity against Escherichia coli MTCC 443 assessed as diameter of growth inhibition zone at 100 ug/ml after 18-24 hr by agar cup diffusion method; details: read-out: DIZ
Streptococcus pyogenes [24] = test: Antimicrobial activity against Streptococcus pyogenes MTCC 442 by agar cup diffusion method
Streptococcus pyogenes [25] = test: Antimicrobial activity against Streptococcus pyogenes MTCC 442 assessed as diameter of growth inhibition zone at 250 ug/ml after 18-24 hr by agar cup diffusion method; details: read-out: DIZ
Staphylococcus aureus [26] = test: Antimicrobial activity against Staphylococcus aureus MTCC 96 assessed as diameter of growth inhibition zone at 50 ug/ml after 18-24 hr by agar cup diffusion method; details: read-out: DIZ
Staphylococcus aureus [27] = test: Antimicrobial activity against Staphylococcus aureus MTCC 96 assessed as diameter of growth inhibition zone at 250 ug/ml after 18-24 hr by agar cup diffusion method; details: read-out: DIZ
Pseudomonas aeruginosa [28] = test: Antimicrobial activity against Pseudomonas aeruginosa MTCC 1688 assessed as diameter of growth inhibition zone at 50 ug/ml after 18-24 hr by agar cup diffusion method; details: read-out: DIZ
Trichophyton rubrum [29] = test: Antimicrobial activity against Trichophyton rubrum MTCC 296 assessed as diameter of growth inhibition zone at 50 ug/ml after 48-96 hr by agar cup diffusion method; details: read-out: DIZ
Klebsiella pneumoniae [30] = test: Antimicrobial activity against Klebsiella pneumoniae MTCC 109 assessed as diameter of growth inhibition zone at 250 ug/ml after 18-24 hr by agar cup diffusion method; details: read-out: DIZ
Pseudomonas aeruginosa [31] = test: Antimicrobial activity against Pseudomonas aeruginosa MTCC 1688 assessed as diameter of growth inhibition zone at 100 ug/ml after 18-24 hr by agar cup diffusion method; details: read-out: DIZ
Pseudomonas aeruginosa [32] = test: Antimicrobial activity against Pseudomonas aeruginosa MTCC 1688 by agar cup diffusion method
Candida albicans [33] = test: Antimicrobial activity against Candida albicans MTCC 227 assessed as diameter of growth inhibition zone at 100 ug/ml after 48-96 hr by agar cup diffusion method; details: read-out: DIZ
Aspergillus clavatus [34] = test: Antimicrobial activity against Aspergillus clavatus MTCC 1323 assessed as diameter of growth inhibition zone at 250 ug/ml after 48-96 hr by agar cup diffusion method; details: read-out: DIZ
Penicillium [35] = test: Antimicrobial activity against Penicillium wild strain by agar cup diffusion method
Aspergillus clavatus [36] = test: Antimicrobial activity against Aspergillus clavatus MTCC 1323 assessed as diameter of growth inhibition zone at 50 ug/ml after 48-96 hr by agar cup diffusion method; details: read-out: DIZ
Penicillium [37] = test: Antimicrobial activity against Penicillium wild strain assessed as diameter of growth inhibition zone at 250 ug/ml after 48-96 hr by agar cup diffusion method; details: read-out: DIZ
Penicillium [38] = test: Antimicrobial activity against Penicillium wild strain assessed as diameter of growth inhibition zone at 25 ug/ml after 48-96 hr by agar cup diffusion method; details: read-out: DIZ
Candida albicans [39] = test: Antimicrobial activity against Candida albicans MTCC 227 assessed as diameter of growth inhibition zone at 25 ug/ml after 48-96 hr by agar cup diffusion method; details: read-out: DIZ
Escherichia coli [40] = test: Antimicrobial activity against Escherichia coli MTCC 443 assessed as diameter of growth inhibition zone at 25 ug/ml after 18-24 hr by agar cup diffusion method; details: read-out: DIZ
Aspergillus clavatus [41] = test: Antimicrobial activity against Aspergillus clavatus MTCC 1323 assessed as diameter of growth inhibition zone at 100 ug/ml after 48-96 hr by agar cup diffusion method; details: read-out: DIZ
Trichophyton rubrum [42] = test: Antimicrobial activity against Trichophyton rubrum MTCC 296 by agar cup diffusion method
Trichophyton rubrum [43] = test: Antimicrobial activity against Trichophyton rubrum MTCC 296 assessed as diameter of growth inhibition zone at 100 ug/ml after 48-96 hr by agar cup diffusion method; details: read-out: DIZ
Pseudomonas aeruginosa [44] = test: Antimicrobial activity against Pseudomonas aeruginosa MTCC 1688 assessed as diameter of growth inhibition zone at 25 ug/ml after 18-24 hr by agar cup diffusion method; details: read-out: DIZ
Staphylococcus aureus [45] = test: Antimicrobial activity against Staphylococcus aureus MTCC 96 by agar cup diffusion method

`Cc1ccc(/C=C/C(=O)C2C(=O)NC(=S)NC2=O)cc1` gave an MBC (Escherichia coli [1]) of 200 µg/mL (≈ 694 µM), an MIC (Escherichia coli [1]) of 100 µg/mL (≈ 347 µM) and a zone of inhibition at 100 µg/mL (Staphylococcus aureus [2]) of 16 mm. The zone of inhibition at 250 µg/mL (Escherichia coli [3]) was 19 mm, the zone of inhibition at 50 µg/mL (Candida albicans [4]) was 20 mm and the zone of inhibition at 250 µg/mL (Trichophyton rubrum [5]) was 25 mm. It also gave a zone of inhibition at 50 µg/mL (Escherichia coli [6]) of 15 mm, an MFC (Candida albicans [7]) of over 1000 µg/mL and an MIC (Candida albicans [7]) of 1000 µg/mL (≈ 3470 µM). It also gave a zone of inhibition at 50 µg/mL (Streptococcus pyogenes [8]) of 15 mm, a zone of inhibition at 25 µg/mL (Klebsiella pneumoniae [9]) of 12 mm and a zone of inhibition at 100 µg/mL (Klebsiella pneumoniae [10]) of 15 mm. It also gave an MFC (Aspergillus clavatus [11]) of over 1000 µg/mL, an MIC (Aspergillus clavatus [11]) of over 1000 µg/mL and a zone of inhibition at 25 µg/mL (Trichophyton rubrum [12]) of 19 mm. It also gave a zone of inhibition at 50 µg/mL (Klebsiella pneumoniae [13]) of 14 mm, a zone of inhibition at 250 µg/mL (Pseudomonas aeruginosa [14]) of 17 mm and a zone of inhibition at 50 µg/mL (Penicillium [15]) of 18 mm. For the same molecule, the zone of inhibition at 25 µg/mL (Staphylococcus aureus [16]) was 10 mm, the zone of inhibition at 250 µg/mL (Candida albicans [17]) was 24 mm and the zone of inhibition at 25 µg/mL (Aspergillus clavatus [18]) was 21 mm. The zone of inhibition at 100 µg/mL (Penicillium [19]) was 19 mm, the zone of inhibition at 100 µg/mL (Streptococcus pyogenes [20]) was 18 mm and the MBC (Klebsiella pneumoniae [21]) was 100 µg/mL (≈ 347 µM). It also gave an MIC (Klebsiella pneumoniae [21]) of 100 µg/mL (≈ 347 µM), a zone of inhibition at 25 µg/mL (Streptococcus pyogenes [22]) of 15 mm and a zone of inhibition at 100 µg/mL (Escherichia coli [23]) of 18 mm. It also gave an MBC (Streptococcus pyogenes [24]) of 200 µg/mL (≈ 694 µM), an MIC (Streptococcus pyogenes [24]) of 250 µg/mL (≈ 867 µM) and a zone of inhibition at 250 µg/mL (Streptococcus pyogenes [25]) of 19 mm. For the same molecule, the zone of inhibition at 50 µg/mL (Staphylococcus aureus [26]) was 12 mm, the zone of inhibition at 250 µg/mL (Staphylococcus aureus [27]) was 17 mm and the zone of inhibition at 50 µg/mL (Pseudomonas aeruginosa [28]) was 12 mm. The zone of inhibition at 50 µg/mL (Trichophyton rubrum [29]) was 20 mm, the zone of inhibition at 250 µg/mL (Klebsiella pneumoniae [30]) was 17 mm and the zone of inhibition at 100 µg/mL (Pseudomonas aeruginosa [31]) was 16 mm. It also gave an MBC (Pseudomonas aeruginosa [32]) of 500 µg/mL (≈ 1730 µM), an MIC (Pseudomonas aeruginosa [32]) of 250 µg/mL (≈ 867 µM) and a zone of inhibition at 100 µg/mL (Candida albicans [33]) of 21 mm. For the same molecule, the zone of inhibition at 250 µg/mL (Aspergillus clavatus [34]) was 25 mm, the MFC (Penicillium [35]) was over 1000 µg/mL and the MIC (Penicillium [35]) was over 1000 µg/mL. For the same molecule, the zone of inhibition at 50 µg/mL (Aspergillus clavatus [36]) was 22 mm, the zone of inhibition at 250 µg/mL (Penicillium [37]) was 22 mm and the zone of inhibition at 25 µg/mL (Penicillium [38]) was 18 mm. It also gave a zone of inhibition at 25 µg/mL (Candida albicans [39]) of 19 mm, a zone of inhibition at 25 µg/mL (Escherichia coli [40]) of 15 mm and a zone of inhibition at 100 µg/mL (Aspergillus clavatus [41]) of 22 mm. For the same molecule, the MFC (Trichophyton rubrum [42]) was over 1000 µg/mL, the MIC (Trichophyton rubrum [42]) was over 1000 µg/mL and the zone of inhibition at 100 µg/mL (Trichophyton rubrum [43]) was 22 mm. It also gave a zone of inhibition at 25 µg/mL (Pseudomonas aeruginosa [44]) of 10 mm, an MBC (Staphylococcus aureus [45]) of 125 µg/mL (≈ 434 µM) and an MIC (Staphylococcus aureus [45]) of 125 µg/mL (≈ 434 µM).
